Laboratory results reported in PubChem BioAssay AID330 (DTP/NCI, 2004).
Where “and” joins values, the source holds several entries; their conditions need not be identical. Equal values may be shown once. Toxic doses and inconclusive results are not listed. How the source made its calls: active means survival T/C of 150% or more; inactive means T/C below 125% in these data.

Tested on: P388 leukemia ip, CD2F1 mice, survival T/C
Assay: NCI In Vivo Anticancer Drug Screen. Data for tumor model P388 Leukemia (intraperitoneal) in CD2F1 (CDF1) mice
Settings: endpoint: median survival time, higher = longer survival
Method in brief: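 Mice carrying the transplanted tumor received test compound or vehicle. Survival was recorded in each group, and the value is the treated-group measurement divided by that of the vehicle-treated control group.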

[1] = dose: 50.0 mg/kg/injection, schedule: Q01DX005 (ip), vehicle: Klucel (hydroxypropylcellulose) (HPC)
[2] = dose: 25.0 mg/kg/injection, schedule: Q01DX009 (ip), vehicle: saline with Tween-80
[3] = dose: 25.0 mg/kg/injection, schedule: Q04DX003 (ip), vehicle: saline with Tween-80
[4] = dose: 50.0 mg/kg/injection, schedule: Q01DX009 (ip), vehicle: saline with Tween-80
[5] = dose: 50.0 mg/kg/injection, schedule: Q04DX003 (ip), vehicle: saline with Tween-80
[6] = dose: 100.0 mg/kg/injection, schedule: Q01DX009 (ip), vehicle: saline with Tween-80
[7] = dose: 100.0 mg/kg/injection, schedule: Q04DX003 (ip), vehicle: saline with Tween-80
[8] = dose: 100.0 mg/kg/injection, schedule: Q01DX005 (ip), vehicle: Klucel (hydroxypropylcellulose) (HPC)
[9] = dose: 200.0 mg/kg/injection, schedule: Q01DX005 (ip), vehicle: Klucel (hydroxypropylcellulose) (HPC)
[10] = dose: 200.0 mg/kg/injection, schedule: Q01DX009 (ip), vehicle: saline with Tween-80
[11] = dose: 200.0 mg/kg/injection, schedule: Q04DX003 (ip), vehicle: saline with Tween-80
[12] = dose: 400.0 mg/kg/injection, schedule: Q04DX003 (ip), vehicle: saline with Tween-80
[13] = dose: 12.5 mg/kg/injection, schedule: Q01DX009 (ip), vehicle: saline with Tween-80

Measured: T/C

Cc1[nH]c2ccccc2c1-c1cc(-c2cc(-c3c(C)[nH]c4ccccc34)nc(N)n2)nc(N)n1
inactive: dose: 60.0 mg/kg/injection, schedule: Q01DX005 (ip), vehicle: Klucel (hydroxypropylcellulose) (HPC) 97 % of control | dose: 120.0 mg/kg/injection, schedule: Q01DX005 (ip), vehicle: Klucel (hydroxypropylcellulose) (HPC) 90 % of control

Cc1c[nH]c2nc(C)n(-c3ccc(Cl)cc3)c(=N)c12
inactive: dose: 12.5 mg/kg/injection, schedule: Q01DX005 (ip), vehicle: Klucel (hydroxypropylcellulose) (HPC) 98 % of control | dose: 25.0 mg/kg/injection, schedule: Q01DX005 (ip), vehicle: Klucel (hydroxypropylcellulose) (HPC) 104 % of control | [1] 103 % of control

C=C1C(=O)O[C@H]2[C@@H]3O[C@@H]3C[C@@H]12
inactive: dose: 1.56 mg/kg/injection, schedule: Q01DX009 (ip), vehicle: water 105 % of control | dose: 3.13 mg/kg/injection, schedule: Q01DX009 (ip), vehicle: water 97 % of control | dose: 6.25 mg/kg/injection, schedule: Q01DX009 (ip), vehicle: water 99 % of control | dose: 12.5 mg/kg/injection, schedule: Q01DX009 (ip), vehicle: water 100 % of control | dose: 25.0 mg/kg/injection, schedule: Q01DX009 (ip), vehicle: water 109 % of control

CN1CCC(CN2c3ccccc3Sc3ccccc32)CC1
inactive: [2] 95 % of control | [3] 100 % of control | [4] 100 % of control | [5] 109 % of control | [6] 95 % of control | [7] 109 % of control

CC(NC(=O)CNC(=O)CN)C(=O)O (stereo unspecified)
inactive: dose: 25.0 mg/kg/injection, schedule: Q01DX005 (ip), vehicle: saline 102 % of control | dose: 50.0 mg/kg/injection, schedule: Q01DX005 (ip), vehicle: saline 92 % of control | dose: 100.0 mg/kg/injection, schedule: Q01DX005 (ip), vehicle: saline 94 % of control | dose: 200.0 mg/kg/injection, schedule: Q01DX005 (ip), vehicle: saline 94 % of control

COc1ccc(COC(=O)Sc2nc(C)cc(C)n2)cc1
inactive: [1] 101 % of control | [8] 100 % of control | [9] 102 % of control

CCC(=O)OC1CCC2C3CCC4=CC(=O)CCC4(C)C3CCC12C (stereo unspecified)
inactive: [6] 95 % of control | [7] 95 % of control | [10] 104 % of control | [11] 100 % of control | dose: 400.0 mg/kg/injection, schedule: Q01DX009 (ip), vehicle: saline with Tween-80 95 % of control | [12] 100 % of control

CCOP(=O)(OCC)/C(C#N)=C\c1ccc(O)c(OC)c1
inactive: [7] 110 % of control | [11] 100 % of control | [12] 100 % of control

Oc1ccccc1C=NCCC[N-]CCCN=Cc1ccccc1O.[Co]
inactive: dose: 12.5 mg/kg/injection, schedule: Q01DX009 (ip), vehicle: saline 113 % of control | dose: 100.0 mg/kg/injection, schedule: Q01DX009 (ip), vehicle: saline 119 % of control

COc1ccccc1/C=C1/C(=O)N(c2ccc([N+](=O)[O-])cc2)N=C1C
inactive: [1] 102 % of control | [8] 103 % of control | [9] 101 % of control

CCCOC(=O)/C=C(\I)C(=O)OCCC
inactive: [13] 119 % of control | [2] 110 % of control | [4] 110 % of control and 92 % of control

COc1cc2cccc(O)c2cc1OC
inactive: dose: 12.5 mg/kg/injection, schedule: Q01DX009 (ip), vehicle: other 90 % of control | dose: 25.0 mg/kg/injection, schedule: Q01DX009 (ip), vehicle: other 106 % of control | dose: 50.0 mg/kg/injection, schedule: Q01DX009 (ip), vehicle: other 92 % of control | dose: 200.0 mg/kg/injection, schedule: Q01DX009 (ip), vehicle: other 90 % of control

COc1cc(/C=C(/C)[N+](=O)[O-])cc(Br)c1OC
inactive: [3] 108 % of control | [5] 109 % of control | [7] 109 % of control

CC(C)S(=O)(=O)c1s[nH]c(=O)c1-c1ccccc1
inactive: dose: 50.0 mg/kg/injection, schedule: Q01DX009 (ip), vehicle: Klucel (hydroxypropylcellulose) (HPC) 109 % of control | dose: 100.0 mg/kg/injection, schedule: Q01DX009 (ip), vehicle: Klucel (hydroxypropylcellulose) (HPC) 107 % of control | dose: 200.0 mg/kg/injection, schedule: Q01DX009 (ip), vehicle: Klucel (hydroxypropylcellulose) (HPC) 101 % of control

CCCCC(=O)NN
inactive: [13] 96 % of control | [2] 102 % of control | [4] 102 % of control

CCCn1c(C)nc2[nH]ncc2c1=O
inactive: [1] 100 % of control | [8] 98 % of control | [9] 92 % of control

COc1ccc(/C=C/c2nc(Nc3ccc(O)c(CN4CCCCC4)c3)c3ccccc3n2)cc1
inactive: dose: 50.0 mg/kg/injection, schedule: Q01DX009 (ip), vehicle: distilled water + alcohol 99 % of control | dose: 100.0 mg/kg/injection, schedule: Q01DX009 (ip), vehicle: distilled water + alcohol 100 % of control | dose: 200.0 mg/kg/injection, schedule: Q01DX009 (ip), vehicle: distilled water + alcohol 91 % of control

CN(C)CCOC1OCN(C)CC1(C)C (stereo unspecified)
inactive: [4] 104 % of control | [6] 111 % of control | [10] 110 % of control

CC(=O)OCCNc1n[nH]c(=O)c2ccncc12
inactive: dose: 30.0 mg/kg/injection, schedule: Q01DX005 (ip), vehicle: saline with Tween-80 95 % of control | dose: 60.0 mg/kg/injection, schedule: Q01DX005 (ip), vehicle: saline with Tween-80 93 % of control | dose: 120.0 mg/kg/injection, schedule: Q01DX005 (ip), vehicle: saline with Tween-80 101 % of control | dose: 240.0 mg/kg/injection, schedule: Q01DX005 (ip), vehicle: saline with Tween-80 113 % of control
